Common to all, as to assay: pIC50, kinobeads binding competition
One assay addresses CAMK2G (UniProt Q13555). A digest of the protocol:
(§1)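 pIC50 was obtained by fitting fold changes against vehicle to logistic dose-response curves with the R drc package, using biological duplicates. Kinobeads-bound proteins were digested and measured by TMT10 LC-MS/MS. Before this, either living Jurkat cells received nine compound concentrations (top 30 μM, 1:4 steps) for 60 min at 37 °C prior to lysis, or Jurkat lysate or a 1:1:1:1 HEK293/K-562/HepG2/placenta lysate mix received nine concentrations (top 30 μM, 1:5 steps) for 60 min at 4 °C.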

A further assay has as its target IRAK1 (UniProt P51617). An outline of the steps:
as §1

A further assay addresses T1, LATS1 (UniProt O95835).
T1 sequence (whole entry): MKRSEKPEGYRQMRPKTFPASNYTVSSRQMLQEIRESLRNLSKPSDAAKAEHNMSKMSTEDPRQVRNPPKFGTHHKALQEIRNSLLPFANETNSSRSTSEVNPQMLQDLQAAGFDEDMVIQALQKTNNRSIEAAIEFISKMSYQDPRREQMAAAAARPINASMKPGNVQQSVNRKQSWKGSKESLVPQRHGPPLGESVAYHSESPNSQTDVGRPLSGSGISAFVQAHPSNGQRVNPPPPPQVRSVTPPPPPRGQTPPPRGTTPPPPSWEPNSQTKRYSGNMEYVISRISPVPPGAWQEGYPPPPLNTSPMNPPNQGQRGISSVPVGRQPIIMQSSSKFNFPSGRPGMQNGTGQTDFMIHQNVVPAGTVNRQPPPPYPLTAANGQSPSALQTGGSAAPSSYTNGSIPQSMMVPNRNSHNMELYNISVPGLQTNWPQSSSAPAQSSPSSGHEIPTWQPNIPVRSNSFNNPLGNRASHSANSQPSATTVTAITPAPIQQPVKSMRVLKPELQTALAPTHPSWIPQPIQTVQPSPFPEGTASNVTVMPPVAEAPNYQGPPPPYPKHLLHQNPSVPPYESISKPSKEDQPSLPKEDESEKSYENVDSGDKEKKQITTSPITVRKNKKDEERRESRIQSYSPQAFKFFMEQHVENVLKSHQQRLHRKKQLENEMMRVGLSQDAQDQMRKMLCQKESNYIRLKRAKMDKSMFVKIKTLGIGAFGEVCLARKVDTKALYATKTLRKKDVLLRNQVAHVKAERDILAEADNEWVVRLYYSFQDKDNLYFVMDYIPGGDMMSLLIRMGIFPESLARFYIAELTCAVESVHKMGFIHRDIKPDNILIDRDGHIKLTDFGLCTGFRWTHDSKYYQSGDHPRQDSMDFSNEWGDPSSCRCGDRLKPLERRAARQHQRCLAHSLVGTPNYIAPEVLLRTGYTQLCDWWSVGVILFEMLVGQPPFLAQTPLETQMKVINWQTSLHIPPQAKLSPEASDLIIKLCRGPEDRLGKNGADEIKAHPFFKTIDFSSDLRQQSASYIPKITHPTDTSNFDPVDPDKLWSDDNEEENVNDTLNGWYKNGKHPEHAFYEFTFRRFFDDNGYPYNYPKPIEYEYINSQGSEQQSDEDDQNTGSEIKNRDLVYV
A digest of the protocol:
as §1

A further assay has as its target T2, MARK4 (UniProt Q96L34).
T2 sequence (whole entry): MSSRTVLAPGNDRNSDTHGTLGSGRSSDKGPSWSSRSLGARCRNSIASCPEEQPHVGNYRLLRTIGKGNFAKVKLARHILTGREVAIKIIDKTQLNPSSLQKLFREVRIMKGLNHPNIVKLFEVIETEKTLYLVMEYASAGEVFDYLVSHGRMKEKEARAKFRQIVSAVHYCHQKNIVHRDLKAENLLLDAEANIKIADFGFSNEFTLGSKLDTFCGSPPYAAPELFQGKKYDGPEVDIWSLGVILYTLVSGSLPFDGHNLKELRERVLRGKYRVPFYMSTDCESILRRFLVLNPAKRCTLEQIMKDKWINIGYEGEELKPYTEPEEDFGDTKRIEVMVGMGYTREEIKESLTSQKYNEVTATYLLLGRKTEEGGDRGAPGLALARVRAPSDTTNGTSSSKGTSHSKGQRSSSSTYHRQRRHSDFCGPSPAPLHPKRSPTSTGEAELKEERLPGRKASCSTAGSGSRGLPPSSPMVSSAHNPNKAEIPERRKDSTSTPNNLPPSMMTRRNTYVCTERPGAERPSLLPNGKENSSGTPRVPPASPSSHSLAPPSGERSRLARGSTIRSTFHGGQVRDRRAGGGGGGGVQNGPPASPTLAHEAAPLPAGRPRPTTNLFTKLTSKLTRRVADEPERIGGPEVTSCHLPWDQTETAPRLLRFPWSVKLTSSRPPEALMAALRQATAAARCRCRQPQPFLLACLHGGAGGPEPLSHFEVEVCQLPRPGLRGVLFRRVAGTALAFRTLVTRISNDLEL
A digest of the protocol:
as §1

The next assay concerns the target T3, PRKX (UniProt P51817).
T3 sequence (whole entry): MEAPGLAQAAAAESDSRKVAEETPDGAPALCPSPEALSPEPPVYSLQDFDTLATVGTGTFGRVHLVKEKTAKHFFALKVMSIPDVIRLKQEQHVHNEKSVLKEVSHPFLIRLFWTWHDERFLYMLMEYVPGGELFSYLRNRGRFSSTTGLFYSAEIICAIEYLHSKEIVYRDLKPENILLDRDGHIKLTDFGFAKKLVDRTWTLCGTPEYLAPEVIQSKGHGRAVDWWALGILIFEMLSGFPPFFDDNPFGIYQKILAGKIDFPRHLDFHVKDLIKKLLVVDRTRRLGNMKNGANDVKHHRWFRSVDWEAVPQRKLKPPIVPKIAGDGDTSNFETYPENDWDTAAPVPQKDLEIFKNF
A digest of the protocol: as §1

In the next assay the target is ROCK1 (UniProt Q13464). A digest of the protocol: as §1
Sequence of ROCK1 (Q13464 whole entry, looked up): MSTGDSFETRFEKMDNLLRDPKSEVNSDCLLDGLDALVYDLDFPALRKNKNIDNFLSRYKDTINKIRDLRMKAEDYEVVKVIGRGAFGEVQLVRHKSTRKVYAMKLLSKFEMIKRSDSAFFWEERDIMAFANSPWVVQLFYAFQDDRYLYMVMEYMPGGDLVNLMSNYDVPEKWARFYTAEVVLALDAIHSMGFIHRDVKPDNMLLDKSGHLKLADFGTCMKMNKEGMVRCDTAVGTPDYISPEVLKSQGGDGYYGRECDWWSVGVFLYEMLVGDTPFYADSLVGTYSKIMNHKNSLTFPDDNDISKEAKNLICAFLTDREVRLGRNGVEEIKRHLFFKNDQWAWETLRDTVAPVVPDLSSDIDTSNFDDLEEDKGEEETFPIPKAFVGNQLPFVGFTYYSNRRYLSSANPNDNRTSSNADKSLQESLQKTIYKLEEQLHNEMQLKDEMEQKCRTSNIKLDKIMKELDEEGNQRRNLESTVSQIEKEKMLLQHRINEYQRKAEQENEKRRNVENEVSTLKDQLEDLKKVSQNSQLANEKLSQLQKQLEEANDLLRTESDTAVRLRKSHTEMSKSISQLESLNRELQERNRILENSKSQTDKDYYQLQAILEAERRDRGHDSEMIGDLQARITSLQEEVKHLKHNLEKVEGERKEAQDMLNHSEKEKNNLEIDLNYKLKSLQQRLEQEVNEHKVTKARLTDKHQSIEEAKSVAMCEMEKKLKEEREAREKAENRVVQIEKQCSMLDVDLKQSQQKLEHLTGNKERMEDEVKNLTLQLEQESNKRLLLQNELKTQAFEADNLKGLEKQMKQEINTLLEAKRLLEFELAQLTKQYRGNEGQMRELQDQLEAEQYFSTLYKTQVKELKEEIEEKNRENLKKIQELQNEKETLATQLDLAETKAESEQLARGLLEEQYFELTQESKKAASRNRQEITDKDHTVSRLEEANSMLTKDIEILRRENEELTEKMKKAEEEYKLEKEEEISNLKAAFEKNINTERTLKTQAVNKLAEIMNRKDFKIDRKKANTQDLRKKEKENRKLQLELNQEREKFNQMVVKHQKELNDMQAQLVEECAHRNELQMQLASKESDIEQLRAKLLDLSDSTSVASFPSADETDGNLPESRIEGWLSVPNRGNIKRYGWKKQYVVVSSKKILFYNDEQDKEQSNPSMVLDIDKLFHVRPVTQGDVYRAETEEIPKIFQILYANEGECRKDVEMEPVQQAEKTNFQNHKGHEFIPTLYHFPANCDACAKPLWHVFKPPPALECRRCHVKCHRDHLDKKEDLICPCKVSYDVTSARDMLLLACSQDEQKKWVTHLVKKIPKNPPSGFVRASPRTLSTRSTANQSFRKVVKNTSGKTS
In the next assay the target is TGFBR2 (UniProt P37173). An outline of the steps:
as §1

The target of the next assay is UniProt P48729. A digest of the protocol: as §1
Sequence of UniProt P48729 (P48729 whole entry, looked up): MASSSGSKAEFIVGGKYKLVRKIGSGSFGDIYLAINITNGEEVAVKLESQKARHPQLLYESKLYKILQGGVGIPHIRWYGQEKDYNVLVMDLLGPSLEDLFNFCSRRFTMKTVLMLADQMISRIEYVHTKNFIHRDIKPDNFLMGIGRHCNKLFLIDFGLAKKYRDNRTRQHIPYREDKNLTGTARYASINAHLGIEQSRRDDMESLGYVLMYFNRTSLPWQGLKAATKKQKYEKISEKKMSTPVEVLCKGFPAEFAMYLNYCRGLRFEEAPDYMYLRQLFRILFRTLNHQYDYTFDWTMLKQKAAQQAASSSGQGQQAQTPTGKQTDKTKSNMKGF
In the next assay the target is UniProt P78527. An outline of the steps:
as §1

For a further assay, the target named is UniProt Q13557. An outline of the steps: as §1
Sequence of UniProt Q13557 (Q13557 whole entry): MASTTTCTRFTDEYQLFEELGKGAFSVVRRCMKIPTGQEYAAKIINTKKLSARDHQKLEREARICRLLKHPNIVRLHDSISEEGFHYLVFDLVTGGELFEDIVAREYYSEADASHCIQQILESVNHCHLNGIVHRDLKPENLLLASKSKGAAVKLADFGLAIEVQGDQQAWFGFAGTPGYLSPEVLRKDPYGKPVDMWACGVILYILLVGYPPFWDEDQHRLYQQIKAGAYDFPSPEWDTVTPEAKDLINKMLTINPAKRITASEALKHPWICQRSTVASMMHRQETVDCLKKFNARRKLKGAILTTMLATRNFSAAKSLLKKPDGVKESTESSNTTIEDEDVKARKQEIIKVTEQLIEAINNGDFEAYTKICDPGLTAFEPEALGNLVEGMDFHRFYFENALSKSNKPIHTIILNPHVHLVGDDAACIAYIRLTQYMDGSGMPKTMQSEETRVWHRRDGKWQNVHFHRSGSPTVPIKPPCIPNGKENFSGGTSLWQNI

Sequence of TGFBR2 (P37173 whole entry): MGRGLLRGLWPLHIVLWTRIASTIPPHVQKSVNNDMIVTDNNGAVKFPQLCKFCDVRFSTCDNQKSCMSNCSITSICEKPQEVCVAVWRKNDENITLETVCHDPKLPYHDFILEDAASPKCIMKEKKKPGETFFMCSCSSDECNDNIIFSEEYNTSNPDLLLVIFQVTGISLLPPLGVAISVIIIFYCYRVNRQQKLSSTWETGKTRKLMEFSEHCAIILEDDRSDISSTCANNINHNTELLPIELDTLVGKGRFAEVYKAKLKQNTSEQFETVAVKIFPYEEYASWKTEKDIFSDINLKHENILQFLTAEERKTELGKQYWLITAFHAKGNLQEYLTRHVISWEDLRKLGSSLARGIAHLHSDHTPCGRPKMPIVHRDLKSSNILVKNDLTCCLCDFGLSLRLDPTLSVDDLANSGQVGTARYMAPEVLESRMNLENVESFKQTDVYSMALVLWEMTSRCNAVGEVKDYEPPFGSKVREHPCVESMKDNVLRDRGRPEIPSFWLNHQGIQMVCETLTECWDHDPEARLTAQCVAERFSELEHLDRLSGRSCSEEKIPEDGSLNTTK
Sequence of CAMK2G (Q13555 whole entry): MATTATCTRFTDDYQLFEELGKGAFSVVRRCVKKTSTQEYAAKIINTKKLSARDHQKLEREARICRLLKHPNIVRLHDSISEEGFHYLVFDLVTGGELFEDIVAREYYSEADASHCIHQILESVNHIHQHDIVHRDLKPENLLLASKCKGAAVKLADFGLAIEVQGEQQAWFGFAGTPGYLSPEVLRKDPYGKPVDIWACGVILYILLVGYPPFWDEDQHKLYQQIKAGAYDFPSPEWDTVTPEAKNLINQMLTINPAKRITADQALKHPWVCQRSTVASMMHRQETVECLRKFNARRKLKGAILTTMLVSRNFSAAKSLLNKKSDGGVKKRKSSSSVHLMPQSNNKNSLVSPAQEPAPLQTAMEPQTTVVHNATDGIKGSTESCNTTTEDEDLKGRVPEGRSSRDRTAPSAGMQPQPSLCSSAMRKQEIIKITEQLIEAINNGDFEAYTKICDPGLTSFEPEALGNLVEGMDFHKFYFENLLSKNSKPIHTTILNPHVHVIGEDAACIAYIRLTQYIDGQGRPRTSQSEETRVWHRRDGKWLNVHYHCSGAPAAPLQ
Sequence of IRAK1 (P51617 whole entry, looked up): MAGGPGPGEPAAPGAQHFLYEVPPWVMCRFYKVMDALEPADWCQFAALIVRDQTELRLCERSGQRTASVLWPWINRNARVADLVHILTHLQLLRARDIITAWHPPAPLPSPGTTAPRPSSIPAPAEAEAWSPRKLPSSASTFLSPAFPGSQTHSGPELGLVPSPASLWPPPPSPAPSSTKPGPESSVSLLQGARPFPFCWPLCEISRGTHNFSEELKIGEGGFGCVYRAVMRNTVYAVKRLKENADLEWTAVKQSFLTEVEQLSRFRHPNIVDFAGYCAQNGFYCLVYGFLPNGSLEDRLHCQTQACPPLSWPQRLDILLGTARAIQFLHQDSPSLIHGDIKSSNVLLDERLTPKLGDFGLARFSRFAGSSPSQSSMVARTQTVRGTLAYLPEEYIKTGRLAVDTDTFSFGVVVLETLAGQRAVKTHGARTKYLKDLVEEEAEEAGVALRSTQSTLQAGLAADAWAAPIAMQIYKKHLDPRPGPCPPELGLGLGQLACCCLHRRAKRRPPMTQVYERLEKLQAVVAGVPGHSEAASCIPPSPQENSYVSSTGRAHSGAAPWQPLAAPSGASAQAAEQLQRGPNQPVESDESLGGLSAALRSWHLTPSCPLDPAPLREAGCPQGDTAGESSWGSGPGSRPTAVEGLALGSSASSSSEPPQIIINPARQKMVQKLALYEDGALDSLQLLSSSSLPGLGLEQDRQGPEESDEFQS

`O=C(NCCNC(=O)c1cc(Nc2cc(C3CC3)[nH]n2)nc(N2CCN(Cc3ccc(S(=O)(=O)F)cc3)CC2)n1)OC1CC/C=C/CCC1` (configuration not stated): the pIC50 on CAMK2G (cell material: Jurkat cells) was below 4.52; at CAMK2G (cell material: Jurkat lysate), below 4.52; at CAMK2G (cell material: Lysate mix) it was below 4.52; at IRAK1 (cell material: Jurkat cells) it was 5.53; at IRAK1 (cell material: Jurkat lysate), below 4.52; on LATS1 (cell material: Jurkat cells), 5.78. The pIC50 on LATS1 (cell material: Jurkat lysate) is below 4.52; on LATS1 (cell material: Lysate mix), below 4.52; on MARK4 (cell material: Jurkat cells), 5.44; at MARK4 (cell material: Jurkat lysate) it was below 4.52; on MARK4 (cell material: Lysate mix), below 4.52; at PRKX (cell material: Jurkat cells), 5.28. Also, the pIC50 on PRKX (cell material: Jurkat lysate), at PRKX (cell material: Lysate mix), at ROCK1 (cell material: Jurkat cells), at ROCK1 (cell material: Jurkat lysate), at ROCK1 (cell material: Lysate mix) and at TGFBR2 (cell material: Jurkat cells) was below 4.52 throughout. Besides, the pIC50 on TGFBR2 (cell material: Jurkat lysate), on TGFBR2 (cell material: Lysate mix), at UniProt P48729 (cell material: Jurkat lysate), at UniProt P48729 (cell material: Lysate mix), at UniProt P78527 (cell material: Jurkat cells) and on UniProt P78527 (cell material: Jurkat lysate) was below 4.52 throughout. For the same molecule, the pIC50 on UniProt P78527 (cell material: Lysate mix), at UniProt Q13557 (cell material: Jurkat cells), on UniProt Q13557 (cell material: Jurkat lysate) and on UniProt Q13557 (cell material: Lysate mix) was below 4.52 in each case.
Turning to `Cc1cc(Nc2cc(C(=O)NCCNC(=O)OC3CC/C=C/CCC3)nc(N3CCN(Cc4ccc(S(=O)(=O)F)cc4)CC3)n2)n[nH]1` (configuration not stated), the pIC50 at CAMK2G (cell material: Lysate mix), on IRAK1 (cell material: Lysate mix), at LATS1 (cell material: Lysate mix), on MARK4 (cell material: Lysate mix), on PRKX (cell material: Lysate mix) and at ROCK1 (cell material: Lysate mix) was below 4.52 throughout. Also, the pIC50 at TGFBR2 (cell material: Lysate mix), at UniProt P48729 (cell material: Lysate mix), on UniProt P78527 (cell material: Lysate mix) and on UniProt Q13557 (cell material: Lysate mix) was below 4.52 throughout.
As for `CCNC(=O)c1cc(Nc2cc(C)[nH]n2)nc(N2CCN(Cc3ccc(S(=O)(=O)F)cc3)CC2)n1`, the pIC50 at CAMK2G (cell material: Lysate mix) was below 4.52; on IRAK1 (cell material: Lysate mix), 4.8; on LATS1 (cell material: Lysate mix), below 4.52; at MARK4 (cell material: Lysate mix), below 4.52; on PRKX (cell material: Lysate mix), below 4.52; at ROCK1 (cell material: Lysate mix), below 4.52. Also, the pIC50 on TGFBR2 (cell material: Lysate mix), on UniProt P48729 (cell material: Lysate mix), on UniProt P78527 (cell material: Lysate mix) and on UniProt Q13557 (cell material: Lysate mix) was below 4.52 in each case.
With `C#CCNC(=O)c1cc(Nc2cc(C3CC3)[nH]n2)nc(N2CCN(Cc3ccc(S(=O)(=O)F)cc3)CC2)n1`, the pIC50 at CAMK2G (cell material: Jurkat cells) is 5.13; at CAMK2G (cell material: Jurkat lysate), below 4.52; on CAMK2G (cell material: Lysate mix) it was below 4.52; at IRAK1 (cell material: Jurkat cells), below 4.52; at IRAK1 (cell material: Jurkat lysate) it was 5.37; on IRAK1 (cell material: Lysate mix), 5.96. Besides, the pIC50 at LATS1 (cell material: Jurkat cells) was 6.2; at LATS1 (cell material: Jurkat lysate), 4.7; at LATS1 (cell material: Lysate mix), 5.56; on MARK4 (cell material: Jurkat cells) it was 5.98; on MARK4 (cell material: Jurkat lysate), below 4.52; on MARK4 (cell material: Lysate mix), 4.81. The pIC50 on PRKX (cell material: Jurkat cells) was 5.76; on PRKX (cell material: Jurkat lysate), below 4.52; at PRKX (cell material: Lysate mix), 5.26; on ROCK1 (cell material: Jurkat lysate), below 4.52; on ROCK1 (cell material: Lysate mix) it was below 4.52; on TGFBR2 (cell material: Jurkat cells), 5.5. Besides, the pIC50 was below 4.52 on TGFBR2 (cell material: Jurkat lysate); below 4.52 on TGFBR2 (cell material: Lysate mix); 5.51 on UniProt P48729 (cell material: Jurkat cells); below 4.52 on UniProt P48729 (cell material: Jurkat lysate); below 4.52 at UniProt P48729 (cell material: Lysate mix); below 4.52 at UniProt P78527 (cell material: Jurkat cells). Further, the pIC50 on UniProt P78527 (cell material: Jurkat lysate) is below 4.52; at UniProt P78527 (cell material: Lysate mix), below 4.52; on UniProt Q13557 (cell material: Jurkat cells), 4.9; at UniProt Q13557 (cell material: Jurkat lysate), below 4.52; on UniProt Q13557 (cell material: Lysate mix), below 4.52.
For the molecule `C#CCNC(=O)c1cc(Nc2cc(C)[nH]n2)nc(N2CCN(Cc3ccc(S(=O)(=O)F)cc3)CC2)n1`, the pIC50 at CAMK2G (cell material: Lysate mix) was below 4.52; on IRAK1 (cell material: Lysate mix) it was 5.11; at LATS1 (cell material: Lysate mix), 4.65; at MARK4 (cell material: Lysate mix), below 4.52; on PRKX (cell material: Lysate mix), below 4.52; on ROCK1 (cell material: Lysate mix), below 4.52. In addition, the pIC50 on TGFBR2 (cell material: Lysate mix), at UniProt P48729 (cell material: Lysate mix), on UniProt P78527 (cell material: Lysate mix) and at UniProt Q13557 (cell material: Lysate mix) was below 4.52 throughout.
With `CCNC(=O)c1cc(Nc2cc(C3CC3)[nH]n2)nc(N2CCN(Cc3ccc(S(=O)(=O)F)cc3)CC2)n1`, the pIC50 on CAMK2G (cell material: Lysate mix) is below 4.52; at IRAK1 (cell material: Lysate mix), 5.72; on LATS1 (cell material: Lysate mix) it was 5.3; at MARK4 (cell material: Lysate mix), 4.93; at PRKX (cell material: Lysate mix) it was 5; at ROCK1 (cell material: Lysate mix) it was below 4.52. Also, the pIC50 at TGFBR2 (cell material: Lysate mix), at UniProt P48729 (cell material: Lysate mix), on UniProt P78527 (cell material: Lysate mix) and on UniProt Q13557 (cell material: Lysate mix) was below 4.52 in each case.

These data come from the supplement of paper PMC12076712.
